From patent US10925876B2, “Methods for using triazolo-pyrazinyl soluble guanylate cyclase activators in fibrotic disorders” (Merck Sharp & Dohme Corp., priority 2016, dated 2021)

Columns and labels:
[1] = tested on: Spontaneously hypertensive rats (SHR); test: Acute Efficacy in Spontaneously Hypertensive Rats (SHR), telemetry blood pressure; format: in vivo, rat; conditions: single oral gavage
Source text: Spontaneously hypertensive rats (SHR, male, Charles River) were implanted with DSI TA11PA-C40 telemetry device (Data Sciences, Inc., St. Paul, Minn.) under isoflurane or ketamine/metomidine anesthesia. The telemetry unit catheter was inserted into the descending aorta via the femoral artery and the telemetry device was implanted subcutaneously in the left flank area. Animals were allowed to recover from surgery for 14 days before the start of any studies. Blood pressure, heart rate, and activity signals from conscious, freely moving rats were recorded continuously for 30 seconds every 10 minutes. On the day prior to administration of compound, a single oral dose of vehicle (10% transcutol/20% Cremophor/70% water) was administered to all animals to establish baseline control data. The blood pressure lowering efficacy of compound (PO) or vehicle was evaluated following a single oral gavage. Data were collected as hourly averages, and changes in blood pressure were calculated by subtracting control baseline data on an hourly basis. Animals were maintained on normal diet with a 12 hour light-dark cycle.
Maximum peak decreases of systolic blood pressure (SBP) in SHR at a particular P.O. dose (mpk milligrams per kilogram) for the following representative compounds are provided. Category A=SBP in SHRs <20 mmHg; Category B=SBP in SHRs 20-40 mmHg; Category C=SBP in SHRs >40 mmHg.

sGC α1/β1 heterodimer = target: T1, sGC α1/β1 heterodimer (Homo sapiens, UniProt Q02108+Q02153); test: Cell-Based sGC Functional Assay (CASA Assay), cGMP generation in CHO-K1/sGC cells;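 further: reference Compound A is a published heme-dependent sGC activator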; conditions: maximum cGMP production of Compound A set to 100% activation, read-out: % Act. (percent activation relative to Compound A)
T1 construct: expressed in transfected cells
T1 sequence (Q02108 1-690): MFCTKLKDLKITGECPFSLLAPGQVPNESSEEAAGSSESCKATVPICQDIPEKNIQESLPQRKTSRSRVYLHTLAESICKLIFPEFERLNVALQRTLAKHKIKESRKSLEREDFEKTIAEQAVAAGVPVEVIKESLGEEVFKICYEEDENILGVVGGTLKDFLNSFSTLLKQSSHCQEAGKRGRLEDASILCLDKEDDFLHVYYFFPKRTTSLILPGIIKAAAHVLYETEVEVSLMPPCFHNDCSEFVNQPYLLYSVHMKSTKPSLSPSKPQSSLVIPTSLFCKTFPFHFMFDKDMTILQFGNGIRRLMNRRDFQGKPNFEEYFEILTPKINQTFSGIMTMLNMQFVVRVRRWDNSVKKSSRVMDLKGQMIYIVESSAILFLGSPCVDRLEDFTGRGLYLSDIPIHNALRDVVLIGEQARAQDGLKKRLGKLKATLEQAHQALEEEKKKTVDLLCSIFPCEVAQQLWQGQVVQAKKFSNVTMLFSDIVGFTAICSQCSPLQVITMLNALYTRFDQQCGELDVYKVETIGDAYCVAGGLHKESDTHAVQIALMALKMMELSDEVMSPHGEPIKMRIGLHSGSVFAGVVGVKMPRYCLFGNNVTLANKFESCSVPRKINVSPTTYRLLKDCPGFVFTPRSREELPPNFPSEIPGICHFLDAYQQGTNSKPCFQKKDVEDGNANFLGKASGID
T1 sequence (Q02153 1-619): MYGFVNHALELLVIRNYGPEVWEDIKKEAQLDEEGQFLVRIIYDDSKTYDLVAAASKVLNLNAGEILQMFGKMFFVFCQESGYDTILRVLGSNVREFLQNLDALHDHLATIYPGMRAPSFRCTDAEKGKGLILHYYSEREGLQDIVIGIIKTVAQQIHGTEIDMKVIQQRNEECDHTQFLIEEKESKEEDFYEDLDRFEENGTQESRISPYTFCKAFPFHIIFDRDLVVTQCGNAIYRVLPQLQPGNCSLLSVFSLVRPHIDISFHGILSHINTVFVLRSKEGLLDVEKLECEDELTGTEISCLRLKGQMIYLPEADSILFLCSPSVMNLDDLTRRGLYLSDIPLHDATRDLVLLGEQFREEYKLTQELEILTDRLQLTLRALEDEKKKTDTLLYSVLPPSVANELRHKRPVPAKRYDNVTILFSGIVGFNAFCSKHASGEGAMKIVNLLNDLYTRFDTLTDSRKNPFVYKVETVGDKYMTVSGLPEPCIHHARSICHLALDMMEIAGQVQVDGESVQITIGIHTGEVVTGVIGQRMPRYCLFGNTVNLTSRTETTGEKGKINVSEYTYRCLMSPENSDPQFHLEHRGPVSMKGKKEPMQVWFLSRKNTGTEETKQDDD
Method in brief: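 CHO-K1 cells stably expressing human sGC α1/β1, 4×10^5/mL in EBSS with 5 mM MgCl2, 10 mM HEPES, 0.05% BSA, 0.5 mM IBMX, 2.5% DMSO; compounds 1 h at 37 °C ± 1 μM DETA-NO. cGMP by HTRF, expressed as % of reference Compound A maximum; IP and max fold induction from 4P fit.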

Compound	Maximum peak decrease of systolic blood pressure (SBP) in SHR, Cat. ([1]; P.O. 1 mpk)	Emax (sGC α1/β1 heterodimer) [%]	Maximum peak decrease of systolic blood pressure (SBP) in SHR, Cat. ([1]; P.O. 0.3 mpk)
Cc1nc2c(CCC(F)(F)C(F)(F)F)nc(-c3nc(O)c4c(n3)NC(=O)C4(C)c3ccc(Cl)c(F)c3)cn2n1 (centres unmarked) [Example 132B, 5-(4-chloro-3-fluorophenyl)-4-hydroxy-5-methyl-2-(2-methyl-8-(3,3,4,4,4-pentafluorobutyl)-[1,2,4]triazolo[1,5-a]pyrazin-6-yl)-5H-pyrrolo[2,3-d]pyrimidin-6(7H)-one]	A (Category A=SBP in SHRs <20 mmHg)	119	–
CC1(c2ccc(F)c(F)c2)C(=O)Nc2nc(-c3cn4ncnc4c(CCCC(F)(F)F)n3)nc(O)c21 (centres unmarked) [Example 146B, 5-(3,4-difluorophenyl)-4-hydroxy-5-methyl-2-(8-(4,4,4-trifluorobutyl)-[1,2,4]triazolo[1,5-a]pyrazin-6-yl)-5H-pyrrolo[2,3-d]pyrimidin-6(7H)-one]	–	154	B (Category B=SBP in SHRs 20-40 mmHg)
NC(=O)c1nc(-c2cn3ncnc3c(CCCC(F)(F)F)n2)nc2c1C(c1ccc(C(F)(F)F)cn1)(C1CC1)C(=O)N2 (centres unmarked) [Example 178A]	B (Category B=SBP in SHRs 20-40 mmHg)	108	–
C[C@@]1(c2ccc(F)cc2)C(=O)Nc2nc(-c3cn4ncnc4c(CCC(F)(F)C(F)(F)F)n3)nc(O)c21 [Example 119A, (S)-5-(4-fluorophenyl)-4-hydroxy-5-methyl-2-(8-(3,3,4,4,4-pentafluorobutyl)-[1,2,4]triazolo[1,5-a]pyrazin-6-yl)-5,7-dihydro-6H-pyrrolo[2,3-d]pyrimidin-6-one]	B (Category B=SBP in SHRs 20-40 mmHg)	124	–
Cc1ccc(C2(C3CC3)C(=O)Nc3nc(-c4cn5ncnc5c(CCC(F)(F)C(F)(F)F)n4)nc(N)c32)nc1 (racemic) [Example 17B, 4-amino-5-cyclopropyl-5-(5-methylpyridin-2-yl)-2-(8-(3,3,4,4,4-pentafluorobutyl)-[1,2,4]triazolo[1,5-a]pyrazin-6-yl)-5H-pyrrolo[2,3-d]pyrimidin-6(7H)-one]	–	119	A (Category A=SBP in SHRs <20 mmHg)
CC1(c2ccc(Cl)cc2)C(=O)Nc2nc(-c3cn4ncnc4cn3)nc(N)c21 (centres unmarked) [Example 94A, 2-([1,2,4]triazolo[1,5-a]pyrazin-6-yl)-4-amino-5-(4-chlorophenyl)-5-methyl-5H-pyrrolo[2,3-d]pyrimidin-6(7H)-one]	C (Category C=SBP in SHRs >40 mmHg)	138	–
Nc1nc(-c2cn3ncnc3c(CCC(F)(F)C(F)(F)F)n2)nc2c1C(c1ccc(C(F)(F)F)cn1)(C1CC1)C(=O)N2 (centres unmarked) [Example 15A, 4-amino-5-cyclopropyl-2-(8-(3,3,4,4,4-pentafluorobutyl)-[1,2,4]triazolo[1,5-a]pyrazin-6-yl)-5-(5-(trifluoromethyl)pyridin-2-yl)-5H-pyrrolo[2,3-d]pyrimidin-6(7H)-one]	–	139	–
O=C1Nc2nc(-c3cn4ncnc4c(CCCC(F)(F)F)n3)nc(O)c2C1(c1ccc(F)cn1)C1CC1 (centres unmarked) [Example 150A, 5-cyclopropyl-5-(5-fluoropyridin-2-yl)-4-hydroxy-2-(8-(4,4,4-trifluorobutyl)-[1,2,4]triazolo[1,5-a]pyrazin-6-yl)-5,7-dihydro-6H-pyrrolo[2,3-d]pyrimidin-6-one]	–	74	–
CC1(c2nnc(C(F)F)o2)C(=O)Nc2nc(-c3cn4ncnc4c(CCCC(F)(F)F)n3)nc(N)c21 (centres unmarked) [Example 100A, 4-amino-5-(5-(difluoromethyl)-1,3,4-oxadiazol-2-yl)-5-methyl-2-(8-(4,4,4-trifluorobutyl)-[1,2,4]triazolo[1,5-a]pyrazin-6-yl)-5H-pyrrolo[2,3-d]pyrimidin-6(7H)-one]	–	184	–
CC1(c2nnc(C3CC3)o2)C(=O)Nc2nc(-c3cn4ncnc4c(CCCC(F)(F)F)n3)nc(N)c21 (centres unmarked) [Example 99A, 4-amino-5-(5-cyclopropyl-1,3,4-oxadiazol-2-yl)-5-methyl-2-(8-(4,4,4-trifluorobutyl)-[1,2,4]triazolo[1,5-a]pyrazin-6-yl)-5H-pyrrolo[2,3-d]pyrimidin-6(7H)-one]	–	113	–
Nc1nc(-c2cn3ncnc3c(CCC(F)(F)F)n2)nc2c1C(c1ccc(F)c(F)c1)(C1CC1)C(=O)N2 (centres unmarked) [Example 83A, 4-amino-5-cyclopropyl-5-(3,4-difluorophenyl)-2-(8-(3,3,3-trifluoropropyl)-[1,2,4]triazolo[1,5-a]pyrazin-6-yl)-5H-pyrrolo[2,3-d]pyrimidin-6(7H)-one]	–	100	–
CC1(c2cccc(F)c2)C(=O)Nc2nc(-c3cn4ncnc4c(CCC(F)(F)C(F)(F)F)n3)nc(O)c21 (centres unmarked) [Example 129B, 5-(3-fluorophenyl)-4-hydroxy-5-methyl-2-(8-(3,3,4,4,4-pentafluorobutyl)-[1,2,4]triazolo[1,5-a]pyrazin-6-yl)-5,7-dihydro-6H-pyrrolo[2,3-d]pyrimidin-6-one]	–	66	–
CC(F)(F)c1ccc(C2(C)C(=O)Nc3nc(-c4cn5ncnc5c(CCC(F)(F)C(F)(F)F)n4)nc(N)c32)cn1 (racemic) [Example 16B, 4-amino-5-(6-(1,1-difluoroethyl)pyridin-3-yl)-5-methyl-2-(8-(3,3,4,4,4-pentafluorobutyl)-[1,2,4]triazolo[1,5-a]pyrazin-6-yl)-5H-pyrrolo[2,3-d]pyrimidin-6(7H)-one]	–	77	–
Cc1ccc(C2(C)C(=O)Nc3nc(-c4cn5ncnc5c(CCCC(F)(F)F)n4)nc(N)c32)nc1 (centres unmarked) [Example 46B, 4-amino-5-methyl-5-(5-methylpyridin-2-yl)-2-(8-(4,4,4-trifluorobutyl)-[1,2,4]triazolo[1,5-a]pyrazin-6-yl)-5H-pyrrolo[2,3-d]pyrimidin-6(7H)-one]	–	67	–
CC1(c2ccc(F)cn2)C(=O)Nc2nc(-c3cn4ncnc4c(CCCC(F)(F)F)n3)nc(N)c21 (centres unmarked) [Example 22B, 4-amino-5-(5-fluoropyridin-2-yl)-5-methyl-2-(8-(4,4,4-trifluorobutyl)-[1,2,4]triazolo[1,5-a]pyrazin-6-yl)-5H-pyrrolo[2,3-d]pyrimidin-6(7H)-one]	–	130	–
Nc1nc(-c2cn3ncnc3c(CCCC(F)(F)F)n2)nc2c1C(c1ccc(F)cc1)(C1CC1)C(=O)N2 (centres unmarked) [Example 30B, 4-amino-5-cyclopropyl-5-(4-fluorophenyl)-2-(8-(4,4,4-trifluorobutyl)-[1,2,4]triazolo[1,5-a]pyrazin-6-yl)-5H-pyrrolo[2,3-d]pyrimidin-6(7H)-one]	–	117	–
CC1(c2ccc(F)c(F)c2)C(=O)Nc2nc(-c3cn4ncnc4c(CCCC(F)(F)F)n3)nc(N)c21 (centres unmarked) [Example 38B, 4-amino-5-(3,4-difluorophenyl)-5-methyl-2-(8-(4,4,4-trifluorobutyl)-[1,2,4]triazolo[1,5-a]pyrazin-6-yl)-5H-pyrrolo[2,3-d]pyrimidin-6(7H)-one]	–	120	–
